The results in this text go back to US20050119238A1, “Compositions and methods for preventing sporadic neoplasia in colon” (priority 2002, published 2005).

In data set [1] the test system is patients with sporadic (non-hereditary) colorectal neoplasia (adenomas). Nature of the data set: Randomized, double-blind, placebo-controlled study of aspirin on occurrence of large bowel adenomas. Type of data set: in vivo, human. The source says: Patients were recruited at nine centers in North America.
By protocol, subjects were to have a complete surveillance colonoscopy 34-40 months after the qualifying examination. At each colonoscopy, the endoscopist recorded the estimated size and location of all polyps and mucosal lesions suspicious for neoplasia as per usual clinical practice. Each lesion was removed and examined histologically at the clinical center and by the study pathologist. Polyps were classified as neoplastic (adenomatous) or non-neoplastic (e.g., hyperplastic) by the study pathologist.
The primary study outcome was the proportion of subjects with one or more colorectal adenomas detected during the period from one year after randomization through the anticipated surveillance follow-up. If a surveillance colonoscopy was not performed during the protocol time window, the last examination at least one year after randomization was taken as the follow-up exam. Pre-specified secondary outcomes were the numbers of large-bowel adenomas and “advanced lesions”: tubulovillous adenomas (25 to 75 percent villous features), villous adenomas (>75 percent villous), large adenomas ([…]), severe dysplasia, or invasive cancer. Separate analyses were also conducted for lesions in the left colorectum (descending colon, sigmoid colon, and rectum) and right colorectum (the remainder of the bowel).

The nature of data set [2]: Serious medical events in the randomized placebo-controlled aspirin study. Conditions: for Serious Bleeding, Gastrointestinal / Serious Bleeding, Genitourinary: bleeding leading to hospitalization or surgical intervention.
Method: A multi-center, randomized, double-blind, placebo-controlled study was performed that examined the effects of aspirin alone as well as folate treatment combined with aspirin on the occurrence of large bowel adenomas. The study has a 3-by-2 factorial design, investigating aspirin (placebo, 81 mg/day, or 325 mg/day) and folic acid (placebo or 1 mg/day). Patients were recruited at nine centers in North America. Eligible subjects had at least one of the following: (1) one or more histologically confirmed large-bowel adenomas removed within 3 months prior to recruitment, (2) one or more histologically confirmed large-bowel adenomas removed within 16 months before recruitment and a lifetime history of 2 or more confirmed large-bowel adenomas, or (3) a histologically confirmed large-bowel adenoma at least 1 cm in diameter removed within 16 months before recruitment. […] Eligible subjects were between 21 and 80 years old, in good health, and with anticipated colonoscopic follow-up three years after the qualifying examination. Exclusion criteria included a history of a familial colorectal cancer syndrome, invasive large-bowel cancer, malabsorption syndromes, any condition potentially worsened by supplemental aspirin or folic acid, or any condition commonly treated with aspirin, non-steroidal anti-inflammatory drugs (NSAIDs), or folate (e.g., recurrent arthritis, atherosclerotic vascular disease, folic acid deficiency).
Study coordinators at each center maintained contact with the subjects on a regular basis; interval questionnaires regarding possible side effects and medical events were completed every four months by each subject.
Subjects were regularly counseled regarding avoidance of aspirin and other NSAIDs. Lists of products containing aspirin, ibuprofen, or naproxen were provided, and acetaminophen was distributed for treatment of minor febrile illnesses and pain. Every four months, subjects received questionnaires regarding adherence to study treatment; use of medications, over-the-counter drugs and nutritional supplements; and occurrence of symptoms, illnesses, and hospitalizations.
The statistical analysis compared the aspirin treatment groups irrespective of folic acid treatment. Subjects who underwent a follow-up endoscopy at least one year following randomization were included in the analyses. The predefined primary statistical analysis was a 2 degree-of-freedom chi-squared test for a contingency table comparing treatment groups regarding risk of one or more new adenomas. Crude risk ratios and 95 percent confidence intervals were used to compare treatment groups to placebo. Adjusted risk ratios were obtained from log-linear models with age, gender, clinical center, number of lifetime adenomas, and duration of follow-up as covariates. […] Possible modification of treatment effects by baseline characteristics was assessed using interaction terms in the log-linear model. Counts of other clinical endpoints were compared using Fisher's exact test. To compare the effect of aspirin on different types of polyps, a logistic regression model was used with generalized estimating equations (Liang and Zeger Biometrika 1986:13-22) to account for the clustering of multiple endpoints within patients. […] Two-sided P-values <0.05 were considered statistically significant.

For the compound `CC(=O)Oc1ccccc1C(=O)O` [aspirin, acetylsalicylic acid], the “Relative Crude Risk (95% CI)” value in data set [1] (Any adenoma, both aspirin groups combined versus placebo) is recorded as 0.88 (0.77-1.02). The incidence of adenomas entry in data set [1] (patients randomized to the aspirin groups) is on record as “significantly lower”. In data set [2] (81 mg aspirin (N = 377)), the “Coronary Revascularization” value is 3 no of subjects, the Deaths is given as 3 no of subjects, the “Died (percent)” value is reported as 0.8% and the Hospitalization is reported as 61 no of subjects. Moreover, in data set [2] (81 mg aspirin (N = 377)), the “Myocardial Infarction” value was 2 no of subjects; the “Non-Colorectal Cancer” value is recorded as 14 no of subjects; the Stroke is listed as 2 no of subjects; the “Serious Bleeding, Gastrointestinal” value was 2 no of subjects. Also, the “Serious Bleeding, Genitourinary” value in data set [2] (81 mg aspirin (N = 377)) was 6 no of subjects. Also, in data set [2] (325 mg aspirin (N = 372)), the “Coronary Revascularization” value was 5 no of subjects, the Deaths is recorded as 4 no of subjects, the “Died (percent)” value is on record as 1.1% and the Hospitalization was 57 no of subjects. In data set [2] (325 mg aspirin (N = 372)), the “Myocardial Infarction” value was 4 no of subjects; the “Non-Colorectal Cancer” value was 9 no of subjects; the Stroke is 5 no of subjects; the “Serious Bleeding, Gastrointestinal” value is on record as 4 no of subjects. Further, the “Serious Bleeding, Genitourinary” value in data set [2] (325 mg aspirin (N = 372)) was 2 no of subjects. Moreover, the “Hospitalization, cancer and myocardial infarction, occurrence” value in data set [2] (aspirin groups versus placebo, differences compatible with chance) is “somewhat more frequently”. Also, the “patients diagnosed with a stroke (all non-fatal)” value in data set [2] (both aspirin groups together, none on placebo) is reported as “Seven”.
